Test results reported in patent publication US8952024B2, “Herbicidal pyrimidone derivatives” (E I du Pont de Nemours and Company, priority 2009, dated 2015).

What was measured:
Assay type in all cases: in vivo
[1] = system: canarygrass (Phalaris minor); test: Test B postemergence plant response; details: for Canarygrass plant response rating (0 to 100 scale): 62 g ai/ha, 0 is no effect, 13 to 15 days
Procedure, shortened: (§1)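 Visual ratings from 0 (no effect) to 100 (complete control), made against controls 13–15 days after treatment, kept in a greenhouse. Compounds were applied postemergence to potted plants at the 1- to 4-leaf stage (2–18 cm).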

[2] = system: chickweed (Stellaria media); test: Test B postemergence plant response; details: for Chickweed plant response rating (0 to 100 scale): 62 g ai/ha, 0 is no effect, 13 to 15 days
Procedure, shortened: as §1

[3] = system: winter barley (Hordeum vulgare); test: Test B postemergence plant response; details: for Barley plant response rating (0 to 100 scale): 62 g ai/ha, 0 is no effect, 13 to 15 days
Procedure, shortened: as §1

corn (Zea mays) = test: Test B pre-/postemergence plant response; details: for Corn plant response rating (0 to 100 scale): 62 g ai/ha, 0 is no effect, 13 to 15 days
Procedure, shortened: (§2)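 Visual injury, 0–100 scale (100 = complete control), rated against controls after 13 to 15 days in greenhouse. Pre-emergence: seeds in loam/sand soil, treated at planting. Post-emergence: 1- to 4-leaf plants (2 to 18 cm) in peat/vermiculite medium. Compounds formulated in non-phytotoxic solvent with surfactant.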

[4] = system: ragweed (common ragweed, Ambrosia elatior); test: Test B pre-/postemergence plant response; details: for Ragweed plant response rating (0 to 100 scale): 62 g ai/ha, postemergence, 0 is no effect, 100 is complete control, 13 to 15 days; for Plant response rating, Ragweed: Postemergence, scale 0 to 100 (0 no effect, 100 complete control)
Procedure, shortened: as §2

[5] = system: johnsongrass (Sorghum halepense); test: Test B pre-/postemergence plant response; details: for Johnsongrass plant response rating (0 to 100 scale): 62 g ai/ha, 0 is no effect, 13 to 15 days
Procedure, shortened: as §2

[6] = system: blackgrass (Alopecurus myosuroides); test: Test B pre-/postemergence plant response; details: for Blackgrass plant response rating (0 to 100 scale): 62 g ai/ha, 0 is no effect, 13 to 15 days
Procedure, shortened: as §2

[7] = system: Italian ryegrass (Lolium multiflorum); test: Test B pre-/postemergence plant response; details: for Ryegrass, Italian plant response rating (0 to 100 scale): 62 g ai/ha, postemergence, 0 is no effect, 100 is complete control, 13 to 15 days; for Plant response rating, Ryegrass, Italian: Postemergence, scale 0 to 100 (0 no effect, 100 complete control)
Procedure, shortened: as §2

soybean (Glycine max) = test: Test B pre-/postemergence plant response; details: for Soybean plant response rating (0 to 100 scale): 62 g ai/ha, postemergence, 0 is no effect, 100 is complete control, 13 to 15 days; for Plant response rating, Soybean: Postemergence, scale 0 to 100 (0 no effect, 100 complete control)
Procedure, shortened: as §2

[8] = system: downy bromegrass (Bromus tectorum); test: Test B pre-/postemergence plant response; details: for Bromegrass, Downy plant response rating (0 to 100 scale): 62 g ai/ha, 0 is no effect, 13 to 15 days
Procedure, shortened: as §2

[9] = system: wheat (Triticum aestivum); test: Test B pre-/postemergence plant response; details: for Wheat plant response rating (0 to 100 scale): 62 g ai/ha, postemergence, 0 is no effect, 100 is complete control, 13 to 15 days; for Plant response rating, Wheat: Postemergence, scale 0 to 100 (0 no effect, 100 complete control)
Procedure, shortened: as §2

[10] = system: green foxtail (Setaria viridis); test: Test B pre-/postemergence plant response; details: for Foxtail, Green plant response rating (0 to 100 scale): 62 g ai/ha, 0 is no effect, 13 to 15 days
Procedure, shortened: as §2

[11] = system: velvetleaf (Abutilon theophrasti); test: Test B pre-/postemergence plant response; details: for Velvetleaf plant response rating (0 to 100 scale): 62 g ai/ha, postemergence, 0 is no effect, 100 is complete control, 13 to 15 days; for Plant response rating, Velvetleaf: Postemergence, scale 0 to 100 (0 no effect, 100 complete control)
Procedure, shortened: as §2

[12] = system: giant foxtail (Setaria faberii); test: Test B pre-/postemergence plant response; details: for Foxtail, Giant plant response rating (0 to 100 scale): 62 g ai/ha, 0 is no effect, 13 to 15 days
Procedure, shortened: as §2

[13] = system: goosegrass (Eleusine indica); test: Test B pre-/postemergence plant response; details: for Goosegrass plant response rating (0 to 100 scale): 62 g ai/ha, 0 is no effect, 13 to 15 days
Procedure, shortened: as §2

[14] = system: bermudagrass (Cynodon dactylon); test: Test B pre-/postemergence plant response; details: for Bermudagrass plant response rating (0 to 100 scale): 62 g ai/ha, 0 is no effect, 13 to 15 days
Procedure, shortened: as §2

[15] = system: pigweed (Amaranthus retroflexus); test: Test B pre-/postemergence plant response; details: for Pigweed plant response rating (0 to 100 scale): 62 g ai/ha, 0 is no effect, 13 to 15 days
Procedure, shortened: as §2

[16] = system: morningglory (Ipomoea coccinea); test: Test B pre-/postemergence plant response; details: for Morningglory plant response rating (0 to 100 scale): 62 g ai/ha, 0 is no effect, 13 to 15 days
Procedure, shortened: as §2

[17] = 31 g ai/ha, postemergence, scale 0 to 100, 0 is no effect, 100 is complete control
[18] = postemergence, 100 is complete control
[19] = Postemergence, 125 g ai/ha, scale 0 to 100 (0 no effect, 100 complete control)
[20] = Postemergence, 250 g ai/ha, scale 0 to 100 (0 no effect, 100 complete control)

SMILES: O=C1CCCC(O)=C1C(=O)c1cnc(-c2ccsc2)n(CC2CCCO2)c1=O (centres unmarked) [Compound 98]
- Plant response rating, Canarygrass [1, 17]: 5
- Canarygrass plant response rating (0 to 100 scale) [1, 18]: 20
- Plant response rating, Canarygrass [1, 19]: 35
- Plant response rating, Canarygrass [1, 20]: 50
- Plant response rating, Chickweed [2, 17]: 80
- Chickweed plant response rating (0 to 100 scale) [2, 18]: 80
- Plant response rating, Chickweed [2, 19]: 98
- Plant response rating, Chickweed [2, 20]: 100
- Plant response rating, Barley [3, 17]: 0
- Barley plant response rating (0 to 100 scale) [3, 18]: 5
- Plant response rating, Barley [3, 19]: 10
- Plant response rating, Barley [3, 20]: 15
- Plant response rating, Corn (corn (Zea mays); [17]): 35
- Corn plant response rating (0 to 100 scale) (corn (Zea mays); [18]): 35
- Plant response rating, Corn (corn (Zea mays); [19]): 55
- Plant response rating, Corn (corn (Zea mays); [20]): 70
- Ragweed plant response rating (0 to 100 scale) [4]: 75
- Plant response rating, Ragweed ([4]; 125 g ai/ha): 80
- Plant response rating, Ragweed ([4]; 250 g ai/ha): 90
- Plant response rating, Johnsongrass [5, 17]: 55
- Johnsongrass plant response rating (0 to 100 scale) [5, 18]: 70
- Plant response rating, Johnsongrass [5, 19]: 75
- Plant response rating, Johnsongrass [5, 20]: 98
- Plant response rating, Blackgrass [6, 17]: 0
- Blackgrass plant response rating (0 to 100 scale) [6, 18]: 5
- Plant response rating, Blackgrass [6, 19]: 20
- Plant response rating, Blackgrass [6, 20]: 50
- Ryegrass, Italian plant response rating (0 to 100 scale) [7]: 5
- Plant response rating, Ryegrass, Italian ([7]; 125 g ai/ha): 15
- Plant response rating, Ryegrass, Italian ([7]; 250 g ai/ha): 15
- Soybean plant response rating (0 to 100 scale) (soybean (Glycine max)): 98
- Plant response rating, Soybean (soybean (Glycine max); 125 g ai/ha): 98
- Plant response rating, Soybean (soybean (Glycine max); 250 g ai/ha): 100
- Plant response rating, Bromegrass, Downy [8, 17]: 5
- Bromegrass, Downy plant response rating (0 to 100 scale) [8, 18]: 5
- Plant response rating, Bromegrass, Downy [8, 19]: 5
- Plant response rating, Bromegrass, Downy [8, 20]: 40
- Wheat plant response rating (0 to 100 scale) [9]: 5
- Plant response rating, Wheat ([9]; 125 g ai/ha): 5
- Plant response rating, Wheat ([9]; 250 g ai/ha): 20
- Plant response rating, Foxtail, Green [10, 17]: 30
- Foxtail, Green plant response rating (0 to 100 scale) [10, 18]: 85
- Plant response rating, Foxtail, Green [10, 19]: 85
- Plant response rating, Foxtail, Green [10, 20]: 95
- Velvetleaf plant response rating (0 to 100 scale) [11]: 95
- Plant response rating, Velvetleaf ([11]; 125 g ai/ha): 95
- Plant response rating, Velvetleaf ([11]; 250 g ai/ha): 98
- Plant response rating, Foxtail, Giant [12, 17]: 65
- Foxtail, Giant plant response rating (0 to 100 scale) [12, 18]: 75
- Plant response rating, Foxtail, Giant [12, 19]: 85
- Plant response rating, Foxtail, Giant [12, 20]: 85
- Plant response rating, Goosegrass [13, 17]: 60
- Goosegrass plant response rating (0 to 100 scale) [13, 18]: 75
- Plant response rating, Goosegrass [13, 19]: 80
- Plant response rating, Goosegrass [13, 20]: 90
- Plant response rating, Bermudagrass [14, 17]: 75
- Bermudagrass plant response rating (0 to 100 scale) [14, 18]: 80
- Plant response rating, Bermudagrass [14, 19]: 85
- Plant response rating, Bermudagrass [14, 20]: 98
- Plant response rating, Pigweed [15, 17]: 100
- Pigweed plant response rating (0 to 100 scale) [15, 18]: 100
- Plant response rating, Pigweed [15, 19]: 100
- Plant response rating, Pigweed [15, 20]: 100
- Plant response rating, Morningglory [16, 17]: 70
- Morningglory plant response rating (0 to 100 scale) [16, 18]: 85
- Plant response rating, Morningglory [16, 19]: 100
- Plant response rating, Morningglory [16, 20]: 100

SMILES: O=C1CCCC(O)=C1C(=O)c1cnc(-c2ccsc2)n(C2CCCCC2)c1=O [Compound 99]
- Plant response rating, Canarygrass [1, 17]: 40
- Canarygrass plant response rating (0 to 100 scale) [1, 18]: 60
- Plant response rating, Canarygrass [1, 19]: 60
- Plant response rating, Canarygrass [1, 20]: 70
- Plant response rating, Chickweed [2, 17]: 80
- Chickweed plant response rating (0 to 100 scale) [2, 18]: 98
- Plant response rating, Chickweed [2, 19]: 98
- Plant response rating, Chickweed [2, 20]: 98
- Plant response rating, Barley [3, 17]: 5
- Barley plant response rating (0 to 100 scale) [3, 18]: 5
- Plant response rating, Barley [3, 19]: 10
- Plant response rating, Barley [3, 20]: 30
- Plant response rating, Corn (corn (Zea mays); [17]): 40
- Corn plant response rating (0 to 100 scale) (corn (Zea mays); [18]): 65
- Plant response rating, Corn (corn (Zea mays); [19]): 65
- Plant response rating, Corn (corn (Zea mays); [20]): 80
- Ragweed plant response rating (0 to 100 scale) [4]: 80
- Plant response rating, Ragweed ([4]; 125 g ai/ha): 80
- Plant response rating, Ragweed ([4]; 250 g ai/ha): 95
- Plant response rating, Johnsongrass [5, 17]: 70
- Johnsongrass plant response rating (0 to 100 scale) [5, 18]: 75
- Plant response rating, Johnsongrass [5, 19]: 80
- Plant response rating, Johnsongrass [5, 20]: 95
- Plant response rating, Blackgrass [6, 17]: 0
- Blackgrass plant response rating (0 to 100 scale) [6, 18]: 0
- Plant response rating, Blackgrass [6, 19]: 5
- Plant response rating, Blackgrass [6, 20]: 15
- Ryegrass, Italian plant response rating (0 to 100 scale) [7]: 0
- Plant response rating, Ryegrass, Italian ([7]; 125 g ai/ha): 20
- Plant response rating, Ryegrass, Italian ([7]; 250 g ai/ha): 20
- Soybean plant response rating (0 to 100 scale) (soybean (Glycine max)): 100
- Plant response rating, Soybean (soybean (Glycine max); 125 g ai/ha): 100
- Plant response rating, Soybean (soybean (Glycine max); 250 g ai/ha): 100
- Plant response rating, Bromegrass, Downy [8, 17]: 5
- Bromegrass, Downy plant response rating (0 to 100 scale) [8, 18]: 5
- Plant response rating, Bromegrass, Downy [8, 19]: 25
- Plant response rating, Bromegrass, Downy [8, 20]: 25
- Wheat plant response rating (0 to 100 scale) [9]: 5
- Plant response rating, Wheat ([9]; 125 g ai/ha): 5
- Plant response rating, Wheat ([9]; 250 g ai/ha): 5
- Plant response rating, Foxtail, Green [10, 17]: 50
- Foxtail, Green plant response rating (0 to 100 scale) [10, 18]: 90
- Plant response rating, Foxtail, Green [10, 19]: 95
- Plant response rating, Foxtail, Green [10, 20]: 98
- Velvetleaf plant response rating (0 to 100 scale) [11]: 100
- Plant response rating, Velvetleaf ([11]; 125 g ai/ha): 100
- Plant response rating, Velvetleaf ([11]; 250 g ai/ha): 100
- Plant response rating, Foxtail, Giant [12, 17]: 75
- Foxtail, Giant plant response rating (0 to 100 scale) [12, 18]: 80
- Plant response rating, Foxtail, Giant [12, 19]: 95
- Plant response rating, Foxtail, Giant [12, 20]: 95
- Plant response rating, Goosegrass [13, 17]: 75
- Goosegrass plant response rating (0 to 100 scale) [13, 18]: 75
- Plant response rating, Goosegrass [13, 19]: 75
- Plant response rating, Goosegrass [13, 20]: 80
- Plant response rating, Bermudagrass [14, 17]: 75
- Bermudagrass plant response rating (0 to 100 scale) [14, 18]: 75
- Plant response rating, Bermudagrass [14, 19]: 80
- Plant response rating, Bermudagrass [14, 20]: 98
- Plant response rating, Pigweed [15, 17]: 100
- Pigweed plant response rating (0 to 100 scale) [15, 18]: 100
- Plant response rating, Pigweed [15, 19]: 100
- Plant response rating, Pigweed [15, 20]: 100
- Plant response rating, Morningglory [16, 17]: 100
- Morningglory plant response rating (0 to 100 scale) [16, 18]: 100
- Plant response rating, Morningglory [16, 19]: 100
- Plant response rating, Morningglory [16, 20]: 100
